Source: ChEMBL document CHEMBL5291721, “A preclinical secondary pharmacology resource illuminates target-adverse drug reaction associations of marketed drugs” (Nat Commun, 2023)

Columns and labels:
[1] = molecular target: T1, 5-hydroxytryptamine receptor 1A (Homo sapiens, UniProt P08908); assay type: functional, cell-based
T1 sequence (P08908 whole entry): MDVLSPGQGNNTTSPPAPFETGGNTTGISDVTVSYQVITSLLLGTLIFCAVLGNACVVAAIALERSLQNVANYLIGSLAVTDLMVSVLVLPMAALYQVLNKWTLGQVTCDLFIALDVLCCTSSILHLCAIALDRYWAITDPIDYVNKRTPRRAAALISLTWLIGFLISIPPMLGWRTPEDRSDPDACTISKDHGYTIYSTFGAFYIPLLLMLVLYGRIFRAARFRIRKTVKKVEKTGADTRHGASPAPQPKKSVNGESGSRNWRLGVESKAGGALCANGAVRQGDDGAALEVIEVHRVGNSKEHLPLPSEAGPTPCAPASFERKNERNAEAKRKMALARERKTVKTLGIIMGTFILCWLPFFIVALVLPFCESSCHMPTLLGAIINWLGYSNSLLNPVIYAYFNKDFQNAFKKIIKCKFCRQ

[2] = molecular target: T2, Alpha-2C adrenergic receptor (Homo sapiens, UniProt P18825); assay type: functional
T2 sequence (P18825 whole entry): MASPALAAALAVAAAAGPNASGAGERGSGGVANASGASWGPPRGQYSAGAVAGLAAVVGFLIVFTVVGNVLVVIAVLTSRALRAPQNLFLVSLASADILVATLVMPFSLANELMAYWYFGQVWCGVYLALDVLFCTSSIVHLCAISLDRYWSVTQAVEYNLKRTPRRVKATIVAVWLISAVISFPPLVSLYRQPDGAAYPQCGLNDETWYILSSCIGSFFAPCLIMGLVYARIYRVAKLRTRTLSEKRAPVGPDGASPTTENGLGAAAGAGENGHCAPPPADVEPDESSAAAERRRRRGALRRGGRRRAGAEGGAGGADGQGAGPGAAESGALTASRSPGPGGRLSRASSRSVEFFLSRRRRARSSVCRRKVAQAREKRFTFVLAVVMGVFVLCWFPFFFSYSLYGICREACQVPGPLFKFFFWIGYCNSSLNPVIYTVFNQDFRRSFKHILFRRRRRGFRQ

[3] = molecular target: Sodium-dependent noradrenaline transporter (Homo sapiens, UniProt P23975)
[4] = molecular target: T3, Alpha-2A adrenergic receptor (Homo sapiens, UniProt P08913); assay type: functional, cell-based
T3 sequence (P08913 whole entry): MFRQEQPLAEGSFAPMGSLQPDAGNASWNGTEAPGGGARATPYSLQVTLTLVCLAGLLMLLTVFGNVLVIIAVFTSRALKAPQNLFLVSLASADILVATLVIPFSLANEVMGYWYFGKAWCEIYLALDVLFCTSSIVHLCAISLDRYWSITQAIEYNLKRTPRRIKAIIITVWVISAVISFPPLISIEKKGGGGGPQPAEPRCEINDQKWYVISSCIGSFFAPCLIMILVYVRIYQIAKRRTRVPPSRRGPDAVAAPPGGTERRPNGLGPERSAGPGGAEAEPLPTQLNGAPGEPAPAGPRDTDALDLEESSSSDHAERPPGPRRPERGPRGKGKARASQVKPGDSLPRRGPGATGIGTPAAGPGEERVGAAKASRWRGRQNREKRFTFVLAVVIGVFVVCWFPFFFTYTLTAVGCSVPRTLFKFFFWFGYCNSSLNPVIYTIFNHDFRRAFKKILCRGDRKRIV

Adenosine receptor A2a = Adenosine receptor A2a (Homo sapiens, UniProt P29274)
[5] = molecular target: Neuronal acetylcholine receptor subunit alpha-4 (Homo sapiens, UniProt P43681)
Adenosine receptor A1 = molecular target: T4, Adenosine receptor A1 (Homo sapiens, UniProt P30542)
T4 sequence (P30542 whole entry): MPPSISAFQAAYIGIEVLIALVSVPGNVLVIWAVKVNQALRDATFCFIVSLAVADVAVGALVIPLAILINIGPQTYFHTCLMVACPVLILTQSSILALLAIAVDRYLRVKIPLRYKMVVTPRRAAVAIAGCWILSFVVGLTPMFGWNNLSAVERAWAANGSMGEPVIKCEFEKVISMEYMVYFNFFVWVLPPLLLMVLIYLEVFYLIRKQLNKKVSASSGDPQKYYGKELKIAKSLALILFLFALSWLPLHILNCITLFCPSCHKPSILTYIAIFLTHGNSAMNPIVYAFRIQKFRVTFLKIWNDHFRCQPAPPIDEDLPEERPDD

[6] = molecular target: 5-hydroxytryptamine receptor 2B (Homo sapiens, UniProt P41595); assay type: functional, cell-based
[7] = molecular target: Voltage-gated inwardly rectifying potassium channel KCNH2 (Homo sapiens, UniProt Q12809); assay type: functional; settings: read-out: AC50
[8] = molecular target: T5, 5-hydroxytryptamine receptor 2C (Homo sapiens, UniProt P28335)
T5 sequence (P28335 whole entry): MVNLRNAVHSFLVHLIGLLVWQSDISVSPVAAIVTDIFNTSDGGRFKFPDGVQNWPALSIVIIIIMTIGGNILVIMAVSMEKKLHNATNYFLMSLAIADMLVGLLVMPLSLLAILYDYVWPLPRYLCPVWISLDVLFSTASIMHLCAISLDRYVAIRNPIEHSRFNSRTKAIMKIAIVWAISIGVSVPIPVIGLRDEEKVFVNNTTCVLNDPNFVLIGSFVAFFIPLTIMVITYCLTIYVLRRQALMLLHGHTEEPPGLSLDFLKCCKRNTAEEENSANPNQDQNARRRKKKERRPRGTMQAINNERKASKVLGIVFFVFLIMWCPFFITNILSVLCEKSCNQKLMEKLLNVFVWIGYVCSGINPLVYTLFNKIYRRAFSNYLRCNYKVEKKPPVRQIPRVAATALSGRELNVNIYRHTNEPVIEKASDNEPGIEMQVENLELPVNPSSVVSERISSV
Also: assay procedure not described here.

Voltage-gated inwardly rectifying potassium channel KCNH2, sequence (Q12809 whole entry): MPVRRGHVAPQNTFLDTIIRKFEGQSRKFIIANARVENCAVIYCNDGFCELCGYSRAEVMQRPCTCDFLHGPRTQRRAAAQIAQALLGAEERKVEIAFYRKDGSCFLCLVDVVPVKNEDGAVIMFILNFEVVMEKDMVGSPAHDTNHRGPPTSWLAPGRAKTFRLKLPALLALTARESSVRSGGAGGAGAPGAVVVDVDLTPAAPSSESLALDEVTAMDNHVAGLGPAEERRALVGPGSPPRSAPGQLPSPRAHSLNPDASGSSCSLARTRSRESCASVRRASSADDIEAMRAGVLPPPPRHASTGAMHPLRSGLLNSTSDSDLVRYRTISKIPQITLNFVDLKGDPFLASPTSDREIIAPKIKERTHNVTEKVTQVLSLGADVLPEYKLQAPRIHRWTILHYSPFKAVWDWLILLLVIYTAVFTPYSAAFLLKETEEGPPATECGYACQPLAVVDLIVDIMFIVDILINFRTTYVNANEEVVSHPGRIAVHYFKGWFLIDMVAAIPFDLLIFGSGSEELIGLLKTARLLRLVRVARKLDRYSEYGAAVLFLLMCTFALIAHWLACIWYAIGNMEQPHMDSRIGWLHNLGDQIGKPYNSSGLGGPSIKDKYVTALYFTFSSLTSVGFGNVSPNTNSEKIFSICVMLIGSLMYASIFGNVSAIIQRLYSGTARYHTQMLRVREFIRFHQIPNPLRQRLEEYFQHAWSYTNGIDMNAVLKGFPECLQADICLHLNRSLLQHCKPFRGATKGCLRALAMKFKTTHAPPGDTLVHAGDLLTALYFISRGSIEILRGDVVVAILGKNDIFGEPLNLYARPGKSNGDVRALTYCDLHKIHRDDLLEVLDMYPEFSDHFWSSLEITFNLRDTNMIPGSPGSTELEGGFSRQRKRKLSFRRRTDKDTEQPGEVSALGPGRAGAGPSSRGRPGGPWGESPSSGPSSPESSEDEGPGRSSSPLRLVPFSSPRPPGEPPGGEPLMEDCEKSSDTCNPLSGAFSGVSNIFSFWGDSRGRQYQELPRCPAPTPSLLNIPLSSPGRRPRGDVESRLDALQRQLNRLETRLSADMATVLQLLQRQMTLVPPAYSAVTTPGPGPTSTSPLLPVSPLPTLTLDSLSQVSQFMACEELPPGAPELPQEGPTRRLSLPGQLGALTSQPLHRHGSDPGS
Sodium-dependent noradrenaline transporter, sequence (P23975 whole entry): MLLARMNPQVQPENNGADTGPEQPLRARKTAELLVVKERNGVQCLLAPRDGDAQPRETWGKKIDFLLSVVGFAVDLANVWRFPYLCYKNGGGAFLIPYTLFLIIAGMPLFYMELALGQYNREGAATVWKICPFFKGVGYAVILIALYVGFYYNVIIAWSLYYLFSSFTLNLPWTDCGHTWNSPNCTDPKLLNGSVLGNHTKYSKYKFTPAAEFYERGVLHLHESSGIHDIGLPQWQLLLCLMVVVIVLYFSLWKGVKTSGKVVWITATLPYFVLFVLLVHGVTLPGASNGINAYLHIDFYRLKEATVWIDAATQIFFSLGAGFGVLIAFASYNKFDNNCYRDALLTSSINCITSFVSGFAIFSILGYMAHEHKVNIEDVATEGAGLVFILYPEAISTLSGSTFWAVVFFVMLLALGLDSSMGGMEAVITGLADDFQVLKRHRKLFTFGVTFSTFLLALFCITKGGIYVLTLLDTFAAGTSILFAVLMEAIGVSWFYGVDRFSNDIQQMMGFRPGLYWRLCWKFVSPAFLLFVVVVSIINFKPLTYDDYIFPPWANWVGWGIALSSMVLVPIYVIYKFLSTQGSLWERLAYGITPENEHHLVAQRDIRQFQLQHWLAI
Adenosine receptor A2a, sequence (P29274 whole entry): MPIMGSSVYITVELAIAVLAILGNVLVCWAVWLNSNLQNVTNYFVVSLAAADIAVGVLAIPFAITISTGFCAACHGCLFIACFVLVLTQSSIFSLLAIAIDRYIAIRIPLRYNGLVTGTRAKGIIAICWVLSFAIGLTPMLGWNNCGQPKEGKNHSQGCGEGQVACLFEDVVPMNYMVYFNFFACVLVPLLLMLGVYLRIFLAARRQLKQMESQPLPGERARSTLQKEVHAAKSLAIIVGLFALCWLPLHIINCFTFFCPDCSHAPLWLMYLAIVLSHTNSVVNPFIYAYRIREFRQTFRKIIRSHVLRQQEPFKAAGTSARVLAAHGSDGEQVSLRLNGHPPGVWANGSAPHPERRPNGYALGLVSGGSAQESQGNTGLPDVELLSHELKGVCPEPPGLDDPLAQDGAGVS
Neuronal acetylcholine receptor subunit alpha-4, sequence (P43681 whole entry): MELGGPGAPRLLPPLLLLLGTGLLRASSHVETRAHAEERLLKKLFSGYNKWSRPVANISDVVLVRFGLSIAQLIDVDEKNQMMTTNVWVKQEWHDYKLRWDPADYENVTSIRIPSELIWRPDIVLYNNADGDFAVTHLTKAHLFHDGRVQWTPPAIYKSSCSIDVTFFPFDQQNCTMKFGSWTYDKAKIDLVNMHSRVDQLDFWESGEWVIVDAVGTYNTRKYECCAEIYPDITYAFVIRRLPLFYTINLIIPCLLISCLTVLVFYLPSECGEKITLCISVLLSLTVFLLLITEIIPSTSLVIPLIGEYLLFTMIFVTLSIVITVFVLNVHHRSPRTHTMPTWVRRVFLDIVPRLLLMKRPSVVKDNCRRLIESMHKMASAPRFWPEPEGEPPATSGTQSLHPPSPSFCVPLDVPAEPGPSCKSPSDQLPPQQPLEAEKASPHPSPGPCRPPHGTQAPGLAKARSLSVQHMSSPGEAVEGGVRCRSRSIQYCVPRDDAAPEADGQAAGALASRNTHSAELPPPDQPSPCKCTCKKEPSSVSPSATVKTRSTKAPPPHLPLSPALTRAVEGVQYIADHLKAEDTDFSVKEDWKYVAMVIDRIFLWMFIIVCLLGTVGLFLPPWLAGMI
5-hydroxytryptamine receptor 2B, sequence (P41595 whole entry): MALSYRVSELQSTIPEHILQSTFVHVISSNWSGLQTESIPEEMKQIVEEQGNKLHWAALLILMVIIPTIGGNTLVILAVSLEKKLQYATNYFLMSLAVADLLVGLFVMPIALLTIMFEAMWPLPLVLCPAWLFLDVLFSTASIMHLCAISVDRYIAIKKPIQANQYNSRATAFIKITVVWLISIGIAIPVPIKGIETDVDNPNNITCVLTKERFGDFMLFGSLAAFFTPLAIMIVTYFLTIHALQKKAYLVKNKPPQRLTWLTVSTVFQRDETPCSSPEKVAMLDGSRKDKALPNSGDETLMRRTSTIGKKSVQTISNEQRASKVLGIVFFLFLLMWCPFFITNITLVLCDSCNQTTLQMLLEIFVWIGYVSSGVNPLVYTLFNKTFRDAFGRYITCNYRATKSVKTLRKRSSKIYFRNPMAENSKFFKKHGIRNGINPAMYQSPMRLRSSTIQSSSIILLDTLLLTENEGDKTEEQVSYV

AC50 [1]: > 30 µM | AC50 [2]: > 30 µM | AC50 [3]: > 30 µM | AC50 [4]: > 30 µM | AC50 (Adenosine receptor A2a): > 30 µM | AC50 [5]: > 30 µM | AC50 (Adenosine receptor A1): > 30 µM | AC50 [6]: > 30 µM | AC50 [8]: > 30 µM
SMILES: COC(=O)CCc1ccc(OCC(O)CNC(C)C)cc1 (stereo not given) [ESMOLOL]
AC50 [7]: > 30 µM
